Data taken from US7452870B2, “Drug-eluting stents coated with P2Y12 receptor antagonist compound” (Inspire Pharmaceuticals, Inc., priority 2000, dated 2008).

Key:
[1] = tested on: washed platelet (ADP-induced aggregation; P2Y12 receptor); assay: ADP-induced platelet aggregation, washed platelet preparation; assay type: cell-based; settings: Homo sapiens, inhibition of ADP-induced aggregation, washed platelets, average of at least two separate experiments
Description: Blood was collected from healthy volunteers into syringes containing ⅙ final blood volume of anti-coagulant ACD (65 mM citric acid, 85 mM sodium citrate, 110 mM dextrose) for washed platelet (WP) preparation or into a syringe containing a final concentration of 10 units/mL heparin or 300 μM PPACK for whole blood (WB) assays. The blood collected for whole blood assays was maintained at room temperature and immediately tested as described below. […] These centrifugations and washes were repeated twice following by resuspension in the media described above containing 0.25 U apyrase/mL. Platelet aggregation was measured using the optical mode of a CHRONOLOG® aggregometer (Havertown, Pa.). Five hundred μl of platelet suspension containing 1 mg/mL Fibrinogen were warmed to 37° C. and stirred at 1000 rpm. Indicated concentrations of ADP were added to the sample and aggregation was monitored for 8 minutes. […] For whole blood aggregation, blood was diluted 1:1 with saline and then aggregation was performed in the same manner as described above using the impedance mode of the aggregometer. The potency of agonists and inhibitors of platelet aggregation was calculated from both, the rate of aggregation and the maximal extent of aggregation obtained for each determination by fitting the data to a four-parameter logistic equation using the […]® software package (GraphPad Corp. San Diego, Calif.).
The ability of P2Y12 antagonists to inhibit platelet aggregation is presented in this application as the percent inhibition of the aggregation induced by a maximally effective concentration of ADP.
Data presented are from the average of at least two separate experiments.

P2Y1 = P2Y1 (Homo sapiens, UniProt P47900); assay: Calcium mobilization assay, P2Y1; assay type: cell-based; design: key: no response (NR); settings: activation of P2Y1 receptor;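 further: test compound added first then a maximal dose of the cognate agonist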
P2Y2 = P2Y2 (Homo sapiens, UniProt P41231); assay: Calcium mobilization assay, P2Y2; assay type: cell-based; design: key: no response (NR); settings: activation of P2Y2 receptor;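 further: test compound added first then a maximal dose of the cognate agonist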
P2Y4 = P2Y4 (Homo sapiens, UniProt P51582); assay: Calcium mobilization assay, P2Y4; assay type: cell-based; design: key: no response (NR); settings: activation of P2Y4 receptor;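 further: test compound added first then a maximal dose of the cognate agonist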
P2Y6 = P2Y6 (Homo sapiens, UniProt Q15077); assay: Calcium mobilization assay, P2Y6; assay type: cell-based; design: key: no response (NR); settings: activation of P2Y6 receptor;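 further: test compound added first then a maximal dose of the cognate agonist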
[2] = tested on: platelets (ADP-induced aggregation); assay: Inhibition of ADP-induced platelet aggregation at 100 μM (FIG. 1); assay type: cell-based, human; settings: 100 μM compound
Description: Blood was collected from healthy volunteers into syringes containing ⅙ final blood volume of anti-coagulant ACD (65 mM citric acid, 85 mM sodium citrate, 110 mM dextrose) for washed platelet (WP) preparation or into a syringe containing a final concentration of 10 units/mL heparin or 300 μM PPACK for whole blood (WB) assays. The blood collected for whole blood assays was maintained at room temperature and immediately tested as described below. The blood collected for WP was centrifuged at 180 g for 15 minutes and the supernatant (platelet rich plasma) was removed. The platelet rich plasma was centrifuged and the platelets were pelleted and resuspended in a buffer consisting of (mM): NaCl (137), KCl (2.7), CaCl2 (2) MgCl2 (1), NaH2PO4 (3), Glucose (5), HEPES (10), pH 7.4, 0.2% BSA. These centrifugations and washes were repeated twice following by resuspension in the media described above containing 0.25 U apyrase/mL. Platelet aggregation was measured using the optical mode of a CHRONOLOG® aggregometer (Havertown, Pa.). Five hundred μl of platelet suspension containing 1 mg/mL Fibrinogen were warmed to 37° C. and stirred at 1000 rpm. Indicated concentrations of ADP were added to the sample and aggregation was monitored for 8 minutes. The effect of the compounds described in this invention were studied following the same protocol with the exception that the inhibitor was incubated for 2-5 minutes prior to the addition of a maximally effective concentration of ADP. For whole blood aggregation, blood was diluted 1:1 with saline and then aggregation was performed in the same manner as described above using the impedance mode of the aggregometer. The potency of agonists and inhibitors of platelet aggregation was calculated from both, the rate of aggregation and the maximal extent of aggregation obtained for each determination by fitting the data to a four-parameter logistic equation using the […]® software package (GraphPad Corp. San Diego, Calif.).
The ability of P2Y12 antagonists to inhibit platelet aggregation is presented in this application as the percent inhibition of the aggregation induced by a maximally effective concentration of ADP. When a broad range of concentrations of P2Y12 antagonist was tested (usually from 1 nM to 100 μM), an IC50 value was also obtained.
Different compounds were tested for their inhibition of ADP-induced aggregation and their IC50 according to the protocols in Example 19; the results are shown in FIG. 1. The bar graphs in the figure illustrate the effect of 100 μM concentration of the compound on ADP-induced platelet aggregation, and the data are expressed as % inhibition of the ADP response.
Where hydrogens are understood to be present, they have been omitted for the sake of simplicity. […]

Sequence of P2Y6 (Q15077 whole entry, species assumed): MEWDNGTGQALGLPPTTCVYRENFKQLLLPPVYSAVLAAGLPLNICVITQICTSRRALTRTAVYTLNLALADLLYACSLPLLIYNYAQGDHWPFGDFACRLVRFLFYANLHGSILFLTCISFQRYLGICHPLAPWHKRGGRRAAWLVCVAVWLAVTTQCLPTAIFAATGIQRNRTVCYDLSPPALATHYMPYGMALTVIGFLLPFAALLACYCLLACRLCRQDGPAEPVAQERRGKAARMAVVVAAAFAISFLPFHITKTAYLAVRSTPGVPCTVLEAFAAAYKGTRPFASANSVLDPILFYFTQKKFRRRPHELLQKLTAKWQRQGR
Sequence of P2Y2 (P41231 whole entry, species assumed): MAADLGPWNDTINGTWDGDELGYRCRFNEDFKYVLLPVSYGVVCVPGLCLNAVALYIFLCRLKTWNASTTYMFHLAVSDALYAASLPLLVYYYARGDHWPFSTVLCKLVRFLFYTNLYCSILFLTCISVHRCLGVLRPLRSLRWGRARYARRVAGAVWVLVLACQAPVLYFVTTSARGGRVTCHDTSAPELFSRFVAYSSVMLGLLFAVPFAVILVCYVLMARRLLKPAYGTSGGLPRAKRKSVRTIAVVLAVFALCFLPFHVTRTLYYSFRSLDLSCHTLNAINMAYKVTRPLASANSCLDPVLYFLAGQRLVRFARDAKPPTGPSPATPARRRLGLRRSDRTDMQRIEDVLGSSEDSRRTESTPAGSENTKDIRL
Sequence of P2Y1 (P47900 whole entry): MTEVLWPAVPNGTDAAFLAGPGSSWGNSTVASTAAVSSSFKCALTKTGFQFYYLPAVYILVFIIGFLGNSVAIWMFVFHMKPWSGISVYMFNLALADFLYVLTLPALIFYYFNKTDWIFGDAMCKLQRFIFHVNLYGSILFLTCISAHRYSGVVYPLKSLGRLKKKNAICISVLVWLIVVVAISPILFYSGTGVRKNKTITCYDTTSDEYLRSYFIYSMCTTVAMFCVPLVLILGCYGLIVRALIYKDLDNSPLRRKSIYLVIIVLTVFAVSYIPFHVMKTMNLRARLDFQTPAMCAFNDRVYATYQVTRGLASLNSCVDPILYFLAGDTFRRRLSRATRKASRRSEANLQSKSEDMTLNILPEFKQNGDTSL
Sequence of P2Y4 (P51582 whole entry, species assumed): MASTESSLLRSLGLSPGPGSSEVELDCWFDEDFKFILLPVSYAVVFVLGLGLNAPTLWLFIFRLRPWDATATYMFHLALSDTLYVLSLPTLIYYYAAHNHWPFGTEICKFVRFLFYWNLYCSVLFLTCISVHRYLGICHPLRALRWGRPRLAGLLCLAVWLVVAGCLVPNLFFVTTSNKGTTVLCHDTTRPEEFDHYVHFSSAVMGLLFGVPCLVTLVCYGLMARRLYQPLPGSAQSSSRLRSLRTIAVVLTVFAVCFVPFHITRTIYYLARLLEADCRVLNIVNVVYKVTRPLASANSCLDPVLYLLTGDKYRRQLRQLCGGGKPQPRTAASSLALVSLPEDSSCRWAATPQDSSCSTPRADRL

Row | IC50 [1] [nM] | Calcium Mobilization P2Y1 (P2Y1) | Calcium Mobilization P2Y2 (P2Y2) | Calcium Mobilization P2Y4 (P2Y4) | Calcium Mobilization P2Y6 (P2Y6) | Structure (SMILES) | inhibition of ADP-induced aggregation [2]
1 | 25 | NR | NR | NR | NR | CCNC(=O)Nc1ncnc2c1ncn2[C@@H]1O[C@H](COP(=O)(O)O)C2OC(C#Cc3ccccc3)O[C@@H]21 (stereo partly drawn) [Compound 35, 2′,3′-phenylpropargyl acetal-6-N-ethylurea AMP] | 
2 | 12 | NR | NR | NR | NR | CCNC(=O)Nc1ncnc2c1ncn2[C@@H]1O[C@H](COP(=O)(O)O)C2O[C@H](c3ccccc3)O[C@@H]21 (stereo partly drawn) [Compound 42, 2′3′-(trans)phenyl acetal-6-N-ethylurea AMP] | 
3 | 11 | NR | NR | NR | NR | CCNC(=O)Nc1ncnc2c1ncn2[C@@H]1O[C@H](COP(=O)(O)O)C2O[C@@H](c3ccccc3)O[C@@H]21 (stereo partly drawn) [Compound 43, 2′3′-(cis)phenyl acetal-6-N-ethylurea AMP] | 
4 | 10 | NR | NR | NR | NR | CCNC(=O)Nc1ncnc2c1ncn2[C@@H]1O[C@H](COP(=O)(O)OP(=O)(O)OC[C@H]2O[C@@H](n3cnc4c(NC(=O)NCC)ncnc43)[C@H]3OC(C#Cc4ccccc4)OC23)C2OC(C#Cc3ccccc3)OC21 (stereo partly drawn) [Compound 45, P^1, p2′-di-(2′,3′-phenylpropargylacetal-6-N-ethylureaadenosine 5′-) diphosphate] | 
5 | 53 | NR | NR | NR | NR | CCNC(=O)Nc1ncnc2c1ncn2[C@@H]1O[C@H](COP(=O)(O)OP(=O)(O)OC[C@H]2O[C@@H](n3cnc4c(NC(=O)NCC)ncnc43)[C@H]3OC(Cc4ccccc4)OC23)C2OC(Cc3ccccc3)OC21 (stereo partly drawn) [Compound 46, P^1, P^1-di-(2′,3′-phenylacetaldehydeacetal-6-N-ethylureaadenosine 5′-) diphosphate] | 
6 | 55 | NR | NR | NR | NR | CCNC(=O)Nc1ncnc2c1ncn2[C@@H]1O[C@H](COP(=O)(O)OP(=O)(O)OC[C@H]2O[C@@H](n3cnc4c(NC(=O)NCC)ncnc43)[C@H]3OC(c4ccccc4)OC23)C2OC(c3ccccc3)OC21 (stereo partly drawn) [Compound 47, P^1, P^4-Di-(2′,3′-phenylacetal-6-N-ethylureaadenosine 5′-) diphosphate] | 

Continued, compound first:

Row | Structure (SMILES) | IC50 [1] [nM] | Calcium Mobilization P2Y1 (P2Y1) | Calcium Mobilization P2Y2 (P2Y2) | Calcium Mobilization P2Y4 (P2Y4) | Calcium Mobilization P2Y6 (P2Y6) | inhibition of ADP-induced aggregation [2]
7 | CCNC(=O)Nc1ncnc2c1ncn2[C@@H]1O[C@H](COP(=O)(O)O)C2OC(c3ccccc3)O[C@@H]21 (stereo partly drawn) [Compound 36, 2′,3′-benzaldehyde acetal-6-N-ethylurea AMP] | 13 ± 3 | NR | NR | NR | NR | 
8 | Nc1ccn([C@@H]2O[C@H](COP(=O)(O)OP(=O)(O)OP(=O)(O)OP(=O)(O)OC[C@H]3O[C@@H](n4ccc(=O)[nH]c4=O)[C@H](O)[C@@H]3O)[C@@H](O)[C@H]2O)c(=O)n1 [Cp4U, P^1-(cytidine 5′-)-P^4-(uridine 5′-) tetraphosphate] |  |  |  |  |  | do not inhibit
9 | O=c1ccn([C@@H]2O[C@H](COP(=O)(O)OP(=O)(O)OP(=O)(O)OP(=O)(O)OC[C@H]3O[C@@H](n4cnc5c(=O)[nH]cnc54)[C@H](O)[C@@H]3O)[C@@H](O)[C@H]2O)c(=O)[nH]1 [Ip4U] |  |  |  |  |  | do not inhibit
10 | O=c1ccn([C@@H]2O[C@H](COP(=O)(O)OP(=O)(O)OP(=O)(O)OC[C@@H]3O[C@@H](n4ccc(=O)[nH]c4=O)C(O)[C@@H]3O)[C@H](O)C2O)c(=O)[nH]1 (stereo partly drawn) [Up3U, P^1,P^3-Di(uridine 5′-) triphosphate] |  |  |  |  |  | do not inhibit
11 | O=c1ccn([C@@H]2O[C@H](COP(=O)(O)OP(=O)(O)OP(=O)(O)OP(=O)(O)OC[C@H]3O[C@@H](n4ccc(=O)[nH]c4=O)[C@H](O)[C@@H]3O)[C@@H](O)[C@H]2O)c(=O)[nH]1 [Up4U] |  |  |  |  |  | do not inhibit
